Measured values as given in patent US6355472B2, “Method for producing nucleoside-5′-phosphate ester” (Ajinomoto Co., Inc., priority 1996, dated 2002).

Legend:
E. coli JM109/pEPI380 = test: Production of 5′-inosinic acid from various phosphate donors using new mutant acid phosphatase gene-containing strain; assay type: cell-based; conditions: inosine 6 g/dl, phosphate donor 15 g/dl, cells 100 mg/dl dry weight, pH 4.0, 35° C., 12 hours
Method: E. coli JM109/pEPI380 having introduced therein the plasmid containing the new mutant acid phosphatase gene was inoculated into 50 ml of an L medium containing 100 μg/ml of ampicillin and 1 mM of IPTG, and incubated at 37 C. for 16 hours.
Inosine (6 g/dl) and 15 g/dl of a tripolyphosphate, a polyphosphate (“Polygon P”, a trade name for a product of Chiyoda Kagaku K.K.), […] or disodium carbamylphosphate were dissolved in a 100-mM acetate buffer (pH 4.0). To this was added the above-mentioned strain such that the concentration reached 100 mg/dl in terms of the dry cell weight. The reaction was conducted at 35° C. for 12 hours while maintaining the pH at 4.0. 5′-Inosinic acid was formed and accumulated at good efficiency with any of the phosphate donors. Especially when a polyphosphate was used as a phosphate donor, 5′-inosinic acid was accumulated in the largest amount.

[1] = molecular target: T1, acid phosphatase sample derived from Morganella morganii (Morganella morganii, UniProt P28581); test: Production of 5′-inosinic acid from various phosphate group donors by acid phosphatase sample; assay type: biochemical; conditions: inosine 2 g/dl, phosphate group donor 10 g/dl, enzyme 50 units/dl, pH 4.0, 30° C., 3 hours
T1 construct: made in house; host or cells: Morganella morganii NCIMB 10466 (native strain, not recombinant; purified from cell-free extract)
T1 sequence (P28581 21-249): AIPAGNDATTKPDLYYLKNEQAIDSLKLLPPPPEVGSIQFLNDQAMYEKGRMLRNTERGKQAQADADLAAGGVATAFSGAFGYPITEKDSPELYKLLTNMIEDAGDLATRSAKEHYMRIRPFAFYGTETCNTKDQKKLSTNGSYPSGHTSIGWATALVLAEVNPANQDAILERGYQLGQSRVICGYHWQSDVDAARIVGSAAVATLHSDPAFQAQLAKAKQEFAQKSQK
Method: (§1) Inosine (2 g/dl) and sodium tripolyphosphate, sodium polyphosphate (trade name: Polygon P, produced by Chiyoda Chemical), disodium phenylphosphate, or disodium carbamyl phosphate (10 g/dl) as a phosphate group donor were dissolved in sodium acetate buffer (pH 4.0), to which the enzyme sample prepared in Example 1 was added so that its concentration was 50 units/dl. The reaction mixture was incubated at 30° C. for 3 hours while maintaining pH at 4.0.

[2] = tested on: Escherichia coli JM109/pEPI330; test: Production of 5′-inosinic acid from various phosphate group donors using microbial cells of the mutant strain; assay type: cell-based; conditions: inosine 6 g/dl, phosphate group donor 12 g/dl, cells 200 mg/dl dry weight, pH 4.0, 35° C., 32 hours
Method: Escherichia coli JM109/pEPI330 into which the plasmid containing the mutant acid phosphatase gene had been introduced was inoculated to an L medium (50 ml) containing 100 μg/ml of ampicillin and 1 mM of IPTG, and it was cultivated at 37° C. for 16 hours.
Inosine (6 g/dl) and sodium tripolyphosphate, sodium polyphosphate (trade name: Polygon P, produced by Chiyoda Chemical), disodium phenylphosphate, or disodium carbamyl phosphate (12 g/dl) as a phosphate group donor were dissolved in 100 mM sodium acetate buffer (pH 4.0), to which the microbial cells described above were added to give a cell concentration of 200 mg/dl as converted into a dry weight of the cells. The reaction mixture was incubated at 35° C. for 32 hours while maintaining pH at 4.0. 5′-Inosinic acid was efficiently produced and accumulated by using any of the phosphate group donors. However, the accumulated amount of 5′-inosinic acid was the highest when polyphosphoric acid was used as the phosphate group donor.

[3] = tested on: acid phosphatase sample derived from Escherichia blattae; test: Production of 5′-inosinic acid from various phosphate group donors by acid phosphatase sample; assay type: biochemical; conditions: inosine 2 g/dl, phosphate group donor 10 g/dl, enzyme 50 units/dl, pH 4.0, 35° C., 3 hours
Method: as §1, with “Example 4” for “Example 1”, “at 35°” for “at 30°”

[4] = tested on: acid phosphatase derived from Escherichia blattae; assay type: biochemical, Escherichia blattae JCM 1650
[5] = molecular target: T2, acid phosphatase derived from Morganella morganii (Morganella morganii, UniProt P28581); assay type: biochemical, Morganella morganii NCIMB 10466
T2 construct: made in house; host or cells: Morganella morganii NCIMB 10466 (native strain, not recombinant; purified from cell-free extract)
T2 sequence (P28581 21-249): as above

Compound	Amount of 5′-inosinic acid formed (E. coli JM109/pEPI380)	Produced 5′-inosinic acid [1]	Produced 5′-inosinic acid [2]	Produced 5′-inosinic acid [3]	Effect of the addition of metal ion and inhibitor on activity [4]	Effect of the addition of metal ion and inhibitor on activity [5]
sodium polyphosphate	13.35 g/dL	2.72 g/dL	8.84 g/dL	1.79 g/dL		
NC(=O)OP(=O)([O-])[O-].[Na+].[Na+] [Disodium carbamyl phosphate, disodium carbamyl phosphate]	12.42 g/dL	2.54 g/dL	7.73 g/dL	1.53 g/dL		
O=P(O)(O)OP(=O)(O)OP(=O)(O)O [Sodium tripolyphosphate, sodium tripolyphosphate]	10.84 g/dL	2.10 g/dL	5.96 g/dL	1.20 g/dL		
[Cu+2] [Cu^2+]					inhibited	inhibited
O=P([O-])([O-])Oc1ccccc1.[Na+].[Na+] [Disodium phenylphosphate, disodium phenylphosphate]	12.84 g/dL	2.33 g/dL	7.60 g/dL	1.50 g/dL		
O=C(O)CI [iodoacetic acid]					inhibited	inhibited
[Ag+2] [Ag^2+]					inhibited	inhibited
[Fe+2] [Fe^2+]					inhibited	
[Hg+2] [Hg^2+]					inhibited	inhibited
CC(=O)OP(=O)([O-])[O-].[K+].[Li+] [potassium lithium acetylphosphate]	10.65 g/dL					
[Pb+2] [Pb^2+]					inhibited	inhibited
